Data from patent US5880284A, “Cyclic urea derivatives, pharmaceutical compositions containing these compounds and processes for preparing them” (Dr. Karl Thomae GmbH, priority 1992, dated 1999).
Where a name gives a salt, the structure may show the parent alone. Read-outs that look alike come from different tables or passages of the source.

How the values were obtained:
[1] = system: thrombocyte aggregation; assay: Inhibition of collagen-induced platelet aggregation in platelet-rich plasma (Born and Cross); format: cell-based; details: Homo sapiens, 10 min, read-out: Inhibition of platelet aggregation EC50
Method: The thrombocyte aggregatrion is measured using the Born and Cross method (J. Physiol. 170: 397 (1964)) in platelet-rich plasma taken from health volunteers. To inhibit coagulation the blood is mixed with 3.14% sodium citrate in a ratio by volume of 1:10.
Collagen-induced agaregation
The pattern of the decrease in optical density of the platelet suspension is photometrically measured and recorded after the addition of the aggregation-triggering substance. The rate of aggregation is concluded from the angle of inclination of the density curve. The point on the curve where there is maximum light transmittance is used to calculate the optical density.
The amount of collagen used is as small as possible but sufficient to produce an irreversible reaction curve. Standard commercial collagen produced by Hormonchemie of Munich is used.
Before the addition of the collagen the plasma is incubated for 10 minutes with the substance at 37° C.
From the measurements obtained an EC50 is determined graphically, indicating a 50% change in the optical density in terms of the inhibition of aggregation.

[2] = target: human thrombocytes; assay: Inhibition of binding of 3H-BIBU 52 to human thrombocytes (fibrinogen-binding test); details: 3H-BIBU 52 final concentration 5 nM, plasma, 20 minutes, ambient temperature; 50% inhibition of binding
Method: Inhibition of Binding of ^3 H-BIBU 52 to Human Thrombocytes
A suspension of human thrombocytes in plasma is incubated with ^3 H-BIBU 52 [=(3S,5S)-5-[(4'-amidino-4-biphenylyl)oxymethyl]-3-[(carboxyl)methyl]-2-pyrrolidinone[^3 -^3 H-4-biphenylyl]] […] The free and bound ligand is separated by centrifuging and quantitatively determined by scintillation counting. From the measurements obtained, the inhibition of ^3 H-BIBU 52 binding by the test substance is determined.
In order to do this, donor blood is taken from an anticubital vein and anticoagulated by trisodium citrate (final concentration 13 mM). The blood is centrifuged for 10 minutes at 170×g and the supernatant platelet-rich plasma (PRP) is removed. The remaining blood is vigorously centrifuged once more in order to obtain plasma. The PRP is diluted 1:10 with autologous plasma. 750 μl are incubated with 50 μl of physiological saline solution, 100 μl of test substance solution, 50 μl of ^4 C-sucrose (3,700 Bq) and 50 μl of ^3 H-BIBU 52 (final concentration: 5 nM) at ambient temperature for 20 minutes. In order to measure non-specific binding, instead of the test substance, 5 μl of BIBU 52 are put in (final concentration: 30 μM). The samples are centrifuged for 20 seconds at 10,000×g and the supernatant is drawn off. 100 μl therof are measured in order to determine the free ligand. The pellet is dissolved in 500 μl of 0.2N NaOH, 450 μl are mixed with 2 ml of scintillator and 25 μl of 5N HCl and measured. The residual plasma remaining in the pellet is determined from the ^14 C content, the bound ligand from the ^3 H measurement. After subtracting the non-specific binding, the pellet activity is plotted against the concentration of the test substance and the concentration for a 50% inhibition of binding is determined.

[3] = Tolerability after intravenous administration to mice; format: in vivo
[4] = system: thrombocytes; assay: Collagen-induced aggregation of thrombocytes ex vivo after oral administration; format: in vivo; details: rhesus monkey, oral administration of 1 mg/kg
Method: Moreover, the compound of Example 6(14), for example, inhibits the collagen-induced aggregation of thrombocytes in the rhesus monkey ex vivo after the oral administration of 1 mg/kg for up to four hours.

[5] = collagen-induced, platelet-rich plasma, 10 minutes incubation at 37° C., 50% change in optical density

SMILES | EC50 [1, 5] [nM] | IC50 [2] [nM] | Deaths after intravenous administration ([3]; mouse, in vivo, iv, 30 mg/kg) | EC50 ([1]; Platelet) [nM] | Deaths after intravenous administration ([3]; mice, 30 mg/kg intravenous, three animals) | Duration of inhibition of collagen-induced aggregation of thrombocytes ex vivo [4]
O=C(O)CCc1ccc(N2CCN(CCC3CCNCC3)C2=O)cc1 [1(6), 1-[4-(2-carboxyethyl)phenyl]-3-[2-(4-piperidinyl)ethyl]-imidazolidin-2-one-hydrochloride×water] | 100 | 18 | none of the three animals tested died | – | – | –
Cl.O=C(O)CC[C@H]1CC[C@H](N2CCN(CCC3CCNCC3)C2=O)CC1 [1(39), 1-[trans-4-(2-carboxyethyl)cyclohexyl]-3-[2-(4-piperidinyl)ethyl]-imidazolidin-2-one-hydrochloride] | 86 | 25 | none of the three animals tested died | – | – | –
O=C1N(c2ccc(C34CCN(CC3)CC4)cc2)CCN1[C@H]1CC[C@H](C(=O)O)CC1 [1(50), 1-(trans-4-carboxycyclohexyl)-3-[4-(4-quinuclidinyl)-phenyl]-imidazolidin-2-one-hydrochloride×1.2 H2 O] | – | 65 | – | 170 | – | –
CCOC(=O)CCc1ccc(N2CCN(CCC34CCN(CC3)CC4)C2=O)cc1 [6(37), 1-[2-(4-quinuclidinyl)ethyl]-3-[4-[2-(ethoxycarbonyl)-ethyl]phenyl]-imidazolidin-2-one-hydro-chloride] | – | 7100 | – | 380 | – | –
N#CC1(c2ccc(N3CCN(CCCCC(=O)O)C3=O)cc2)CCNCC1 [24(1), 1-(4-carboxybutyl)-3-[4-(4-cyano-4-piperidinyl)-phenyl]-imidazolidin-2-one] | 940 | 150 | – | – | – | –
Cl.O=C1N(c2ccc(C3CCNCC3)cc2)CCN1[C@H]1CC[C@H](C(=O)O)CC1 [Example 17, 1-(trans-4-Carboxycyclohexyl)-3-[4-(4-piperidinyl)phenyl]-imidazolidin-2-one-hydrochloride] | 43 | 16 | none of the three animals tested died | – | – | –
Cc1nn(-c2ccc(C(=N)N)cc2)c(=O)n1-c1ccc(CC(C)C(=O)O)cc1 (centres unmarked) [1(1), 2-(4-amidinophenyl)-4-[4-(2-carboxy-1-propyl)phenyl]-5-methyl-4H-1,2,4-triazol-3-one×0.5 water] | 30 | 0.8 | none of the three animals tested died | – | – | –
Cc1nn(-c2ccc(C(=N)N)cc2)c(=O)n1[C@H]1CC[C@@H](CCC(=O)O)CC1 [Example 4, 2-(4-Amidinophenyl)-4-[cis-4-(2-carboxyethyl)cyclo-hexyl]-5-methyl-4H-1,2,4-triazol-3-one] | 130 | – | – | – | – | –
Cl.O=C(O)CCc1ccc(N2CCN(CCC34CCN(CC3)CC4)C2=O)cc1 [Example 26, 1-[4-(2-Carboxyethyl)phenyl]-3-[2-(4-quinuclidinyl)ethyl]-imidazolidin-2-one-hydrochloride] | – | 26 | – | 84 | none of the three animals tested died | –
NC1CCCc2cc(N3CCN(c4ccc(CCC(=O)O)cc4)C3=O)ccc21 (centres unmarked) [1(3), 1-(1-amino-1,2,3,4-tetrahydronaphthalin-6-yl)-3-[4-(2-carboxyethyl)phenyl]-imidazolidin-2-one-hydrochloride] | 270 | 64 | – | – | – | –
O=C1N(C2CCC(C3CCNCC3)CC2)CCN1[C@H]1CC[C@H](C(=O)O)CC1 (some centres unmarked) [18(2)] | 110 | – | – | – | – | –
Cc1nn(CCC2CCNCC2)c(=O)n1-c1ccc(CCC(=O)O)cc1 [1(4), 4-[4-(2-carboxyethyl)phenyl]-5-methyl-2-[2-(4-piperidinyl)ethyl]-4H-1,2,4-triazol-3-one-toluenesulphonate×water] | 500 | 280 | none of the three animals tested died | – | – | –
N=C(N)c1ccc(-n2nc(-c3ccccc3)n(-c3ccc(CCC(=O)O)cc3)c2=O)cc1 [1(2), 2-(4-amidinophenyl)-4-[4-(2-carboxyethyl)phenyl]-5-phenyl-4H-1,2,4-triazol-3-one×2 water] | 70 | 1.2 | – | – | – | –
CCOC(=O)[C@H]1CC[C@H](N2CCN(c3ccc(C4CCNCC4)cc3)C2=O)CC1 [6(40), 1-[trans-4-(ethoxycarbonyl)cyclohexyl]-3-[4-(4-piperidinyl)phenyl]-imidazolidin-2-one-hydrochloride] | 240 | 2500 | – | – | – | –

The remaining compounds from weak to strong by EC50 [1, 5], led by results:

EC50 [1, 5] [nM] | IC50 [2] [nM] | SMILES | Deaths after intravenous administration ([3]; mouse, in vivo, iv, 30 mg/kg) | EC50 ([1]; Platelet) [nM] | Deaths after intravenous administration ([3]; mice, 30 mg/kg intravenous, three animals) | Duration of inhibition of collagen-induced aggregation of thrombocytes ex vivo [4]
4300 | 12000 | CN1CCC(CCN2CCN(c3ccc(CCC(=O)O)cc3)C2=O)CC1 [Example 15] | – | – | – | –
3300 | 4100 | NCC1CCC(N2CCN(c3ccc(CCC(=O)O)cc3)C2=O)CC1 (centres unmarked) [4(5), 1-[4-(aminomethyl)cyclohexyl]-3-[4-(2-carboxyethyl)phenyl]-imidazolidin-2-one] | – | – | – | –
3200 | 3500 | N=C(N)c1ccc(N2CCN(c3ccc(CCc4nnn[nH]4)cc3)C2=O)cc1 [2(5), 1-(4-amidinophenyl)-3-[4-[2-(5-tetrazolyl)ethyl]phenyl]-imidazolidin-2-one] | – | – | – | –
1200 | 760 | CCCC(Cc1ccc(-n2c(C)nn(CCC3CCNCC3)c2=O)cc1)C(=O)O (centres unmarked) [1(8), 4-[4-(2-carboxy-1-pentyl)phenyl]-5-methyl-2-(2-(4-piperidinyl)ethyl)-4H-1,2,4-triazol-3-one-hydrochloride] | – | – | – | –
840 | 720 | Cc1nn(-c2ccc(C(=N)N)cc2)c(=O)n1-c1cccc(CCC(=O)O)c1 [5(2), 2-(4-amidinophenyl)-4-[3-(2-carboxyethyl)phenyl]-5-methyl-4H-1,2,4-triazol-3-one] | – | – | – | –
630 | 5700 | CCOC(=O)CC[C@H]1CC[C@H](N2CCN(CCC3CCNCC3)C2=O)CC1 [6(35), 1-[trans-4-[2-(ethoxycarbonyl)ethyl]cyclohexyl]-3-[2-(4-piperidinyl)ethyl]-imidazolidin-2-one-hydrochloride] | – | – | – | –
490 | 200 | O=C(O)CO[C@H]1CC[C@H](N2CCN(CCC3CCNCC3)C2=O)CC1 [30(4), 1-[trans-4-[(carboxymethyl)oxy]cyclohexyl]-3-[2-(4-piperidinyl)ethyl]-imidazolidin-2-one-hydrochloride×0.3 H2 O] | – | – | – | –
380 | – | NCC1CCc2cc(N3CCN([C@H]4CC[C@H](C(=O)O)CC4)C3=O)ccc2C1 (relative stereo) [1(44), 1-(2-aminomethyl-1,2,3,4-tetrahydro-6-naphthyl)-3-(trans-4-carboxycyclohexyl)-imidazolidin-2-one-hydrochloride] | – | – | – | –
350 | 21000 | CCOC(=O)CCc1ccc(N2CCN(CCC3CCNCC3)C2=O)cc1 [6(34), 1-[4-[2-(ethoxycarbonyl)ethyl]phenyl]-3-(2-(4-piperidinyl)ethyl]-imidazolidin-2-one-hydrochloride] | – | – | – | –
300 | 250 | O=C(O)C=Cc1ccc(N2CCN(CCC3CCNCC3)C2=O)c(F)c1 [4(13), 1-[4-(2-carboxyethenyl)-2-fluoro-phenyl]-3-[2-(4-piperidinyl)ethyl]-imidazolidin-2-one×1.1 HCl×1 H2 O] | – | – | – | –
71 | – | CC1(c2ccc(N3CCN([C@H]4CC[C@H](C(=O)O)CC4)C3=O)cc2)CCNCC1 [24(2), 1-(trans-4-carboxycyclohexyl)-3-[4-(4-methyl-4-piperidinyl)phenyl]-imidazolidin-2-one] | – | – | – | –
40 | 250 | Cc1nn(-c2ccc(C(=N)N)cc2)c(=O)n1-c1ccc(CCC(=O)OC2CCCCC2)cc1.Cl [Example 6(14), 2-(4-amidinophenyl)-4-[4-[2-(cyclohexyloxycarbonyl)-ethyl]phenyl]-5-methyl-4H-1,2,4-triazol-3-one-hydrochloride] | – | – | – | up to four
36 | 1 | CCCCS(=O)(=O)NC(Cc1ccc(N2CCN(c3ccc(C(=N)N)cc3)C2=O)cc1)C(=O)O (centres unmarked) [1(21), 1-(4-amidinophenyl)-3-[4-[2-(n-butylsulfonylamino)-2-carboxy-ethyl]phenyl]-imidazolidin-2-one-hydrochloride] | – | – | – | –
30 | 2.9 | N=C(N)c1ccc(-n2ncn([C@H]3CC[C@H](CCC(=O)O)CC3)c2=O)cc1 [4(4), 2-(4-amidinophenyl)-4-[trans-4-(2-carboxyethyl)-cyclohexyl]-4H-1,2,4-triazol-3-one] | – | – | – | –
